Common to all, as to assay type: biochemical
Experiment [1] concerns the target T1, UGP2 (Homo sapiens, UniProt Q16851).
T1 construct: recombinant, expressed in E. coli HMS174(DE3), Ni-NTA purified; plasmid from earlier work
T1 sequence (Q16851 1-508): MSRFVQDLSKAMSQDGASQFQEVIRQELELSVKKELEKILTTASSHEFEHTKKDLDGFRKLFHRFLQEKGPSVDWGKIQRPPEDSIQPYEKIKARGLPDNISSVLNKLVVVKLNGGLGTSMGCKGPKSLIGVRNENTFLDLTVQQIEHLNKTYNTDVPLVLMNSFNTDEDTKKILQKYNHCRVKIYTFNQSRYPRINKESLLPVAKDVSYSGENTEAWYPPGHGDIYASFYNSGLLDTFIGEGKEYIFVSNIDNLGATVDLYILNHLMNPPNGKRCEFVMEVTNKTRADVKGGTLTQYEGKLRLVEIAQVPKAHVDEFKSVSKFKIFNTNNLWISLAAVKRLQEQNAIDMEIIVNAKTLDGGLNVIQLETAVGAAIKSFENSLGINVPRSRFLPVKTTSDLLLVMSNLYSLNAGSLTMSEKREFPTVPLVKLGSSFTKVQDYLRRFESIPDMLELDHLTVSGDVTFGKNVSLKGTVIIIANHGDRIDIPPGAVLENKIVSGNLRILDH
Put plainly: enzyme inhibition assay. The note with it: residual activity, not per cent inhibition; inhibitor 25 µM printed for GAL-012, assumed for analogue; 5 min preincubation. The text has this:
enzyme inhibition assay on UGP2

Experiment [2] deals with T2, GALT (Homo sapiens, UniProt P07902).
T2 construct: recombinant, expressed in E. coli HMS174(DE3), Ni-NTA purified; plasmid from earlier work
As to the kind of experiment: enzyme inhibition assay. The note with it: residual activity, not per cent inhibition; inhibitor 25 µM printed for GAL-012, assumed for analogue; 5 min preincubation. The source says:
enzyme inhibition assay on GALT

Experiment [3] has as its target T1, UGP2. As to the kind of experiment: enzyme inhibition assay. The source says: enzyme inhibition assay on UGP2 | UDP-glucose pyrophosphorylase (UGP2)
In a further experiment the target is T3, AGX1/UAP1 (Homo sapiens, UniProt Q16222).
T3 construct: full-length, cDNA from HepG2 cells, pET30A(+) in E. coli HMS174(DE3), Ni-NTA purified
As to the kind of experiment: enzyme inhibition assay. Conditions: one value stated for GALT, UGP2 and AGX1/UAP1 together.

Experiment [4] addresses T2, GALT. As to the kind of experiment: enzyme inhibition assay. The source says: enzyme inhibition assay on GALT | GAL-012, that inhibit a small family of UDP-hexose pyrophosphorylases-galactose pyro-phosphorylase (GALT)
In experiment [5] the target is T2, GALT. Put plainly: initial velocities, Lineweaver-Burk.

The record followed here is article PMC7038226, “Discovery of Novel Inhibitors Targeting Multi-UDP-hexose Pyrophosphorylases as Anticancer Agents” (Molecules, 2020).

Usually IC50 stands for the point on the concentration scale where inhibition reaches its midpoint. One may read the Ki as the equilibrium dissociation constant of an inhibitor or competing ligand from its target. Higher therefore signals lower affinity.

T2 sequence (P07902 whole entry): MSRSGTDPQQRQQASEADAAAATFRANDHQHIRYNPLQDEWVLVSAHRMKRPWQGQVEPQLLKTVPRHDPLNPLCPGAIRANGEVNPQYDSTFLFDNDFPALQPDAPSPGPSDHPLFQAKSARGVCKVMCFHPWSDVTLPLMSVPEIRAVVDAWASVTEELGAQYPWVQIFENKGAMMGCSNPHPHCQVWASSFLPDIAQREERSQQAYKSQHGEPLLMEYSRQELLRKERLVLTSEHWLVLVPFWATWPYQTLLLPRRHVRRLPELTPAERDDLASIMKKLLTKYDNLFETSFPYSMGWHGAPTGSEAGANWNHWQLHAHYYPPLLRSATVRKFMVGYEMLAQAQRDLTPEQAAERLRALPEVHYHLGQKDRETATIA
T3 sequence (Q16222 1-505 isoform Q16222-2): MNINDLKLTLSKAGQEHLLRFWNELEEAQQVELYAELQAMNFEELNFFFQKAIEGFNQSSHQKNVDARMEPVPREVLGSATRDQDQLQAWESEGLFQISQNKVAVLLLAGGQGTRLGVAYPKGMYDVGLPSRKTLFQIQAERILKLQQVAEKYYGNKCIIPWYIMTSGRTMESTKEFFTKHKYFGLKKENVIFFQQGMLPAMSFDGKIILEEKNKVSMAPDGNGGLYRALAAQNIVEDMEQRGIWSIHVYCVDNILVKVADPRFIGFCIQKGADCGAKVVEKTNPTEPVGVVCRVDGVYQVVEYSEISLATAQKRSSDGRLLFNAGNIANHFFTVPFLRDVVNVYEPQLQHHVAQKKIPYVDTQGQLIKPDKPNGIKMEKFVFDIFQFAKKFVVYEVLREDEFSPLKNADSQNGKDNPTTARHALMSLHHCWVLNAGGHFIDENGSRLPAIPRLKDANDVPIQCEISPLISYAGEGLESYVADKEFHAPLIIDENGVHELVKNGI

Turning to `CN(C)/C=C/C(=O)c1ccc2c(c1)C(C)(C)C(=O)N2C` [GAL-012-2], at UGP2 [1], the “Enzyme Inhibitory Activity / UGP2” value is given as 63.8 ± 4%. Moreover, the “Enzyme Inhibitory Activity / GALT” value on GALT [2] was determined as 63.4 ± 2.3%.
Regarding `CN1C(=O)C(C)(C)c2cc(-c3ccnc(N)n3)ccc21` [GAL-012], the IC50 against UGP2 [3], on AGX1/UAP1 and against GALT [4] was 30 µM each time. This compound came in with a Ki on GALT [5] of roughly 30 µM.
